Results: ChEMBL document CHEMBL1132759, “The flavanolignan silybin and its hemisynthetic derivatives, a novel series of potential modulators of P-glycoprotein” (Bioorg Med Chem Lett, 2000)

Assays:
[1] = Change in Fmax was determined; type: functional
[2] = molecular target: ATP-dependent translocase ABCB1 (Mus musculus, UniProt P21447); assay: Compound was tested for the binding affinity towards recombinant NBD2 C-terminal cytosolic nucleotide-binding domain of mouse P-Glycoprotein
Chain of ATP-dependent translocase ABCB1 (P21447 whole entry, the tested form may be a part): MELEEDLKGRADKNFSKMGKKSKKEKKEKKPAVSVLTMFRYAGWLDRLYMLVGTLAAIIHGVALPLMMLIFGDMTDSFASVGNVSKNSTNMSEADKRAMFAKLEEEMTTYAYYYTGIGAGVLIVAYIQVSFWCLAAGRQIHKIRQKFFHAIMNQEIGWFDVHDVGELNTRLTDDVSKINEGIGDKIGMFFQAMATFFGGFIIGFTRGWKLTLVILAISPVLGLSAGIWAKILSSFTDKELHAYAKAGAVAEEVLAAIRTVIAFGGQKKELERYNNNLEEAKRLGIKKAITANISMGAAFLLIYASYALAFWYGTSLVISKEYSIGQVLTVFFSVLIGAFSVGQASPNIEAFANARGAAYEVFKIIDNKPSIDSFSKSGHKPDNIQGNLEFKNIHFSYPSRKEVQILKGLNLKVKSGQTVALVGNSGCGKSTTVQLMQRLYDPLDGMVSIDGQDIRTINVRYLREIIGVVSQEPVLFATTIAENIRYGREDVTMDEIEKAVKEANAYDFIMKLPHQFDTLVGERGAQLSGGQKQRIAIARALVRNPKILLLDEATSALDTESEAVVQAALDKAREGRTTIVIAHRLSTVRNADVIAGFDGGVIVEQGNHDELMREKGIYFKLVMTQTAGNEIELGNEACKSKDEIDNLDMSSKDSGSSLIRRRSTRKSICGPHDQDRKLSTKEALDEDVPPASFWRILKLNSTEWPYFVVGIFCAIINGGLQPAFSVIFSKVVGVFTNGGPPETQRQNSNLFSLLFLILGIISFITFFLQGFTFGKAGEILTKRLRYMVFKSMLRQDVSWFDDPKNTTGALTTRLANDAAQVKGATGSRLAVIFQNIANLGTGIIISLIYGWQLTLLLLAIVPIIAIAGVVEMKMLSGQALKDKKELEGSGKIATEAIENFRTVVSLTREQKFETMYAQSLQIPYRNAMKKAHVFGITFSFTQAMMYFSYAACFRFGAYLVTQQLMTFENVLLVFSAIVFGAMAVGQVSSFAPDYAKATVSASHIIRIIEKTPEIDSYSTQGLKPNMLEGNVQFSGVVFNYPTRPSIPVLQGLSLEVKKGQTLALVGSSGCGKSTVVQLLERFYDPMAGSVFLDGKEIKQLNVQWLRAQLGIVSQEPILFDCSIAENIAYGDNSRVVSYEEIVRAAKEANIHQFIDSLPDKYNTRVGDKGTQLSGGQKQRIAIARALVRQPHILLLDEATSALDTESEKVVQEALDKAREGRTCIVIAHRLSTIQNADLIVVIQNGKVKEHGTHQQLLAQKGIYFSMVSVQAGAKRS

SMILES	Delta Fmax [1] [%]	Kd [2] [nM]
COc1cc(C2Oc3cc(-c4oc5c(CC=C(C)C)c(O)cc(O)c5c(=O)c4O)ccc3OC2CO)ccc1O (centres undefined)	93.4	250
COc1cc(C2Oc3cc([C@H]4Oc5cc(O)cc(O)c5C(=O)[C@@H]4O)ccc3OC2CO)ccc1O (some centres undefined) [SILIBININ]	91	6800
O=C1c2c(O)cc(O)cc2O[C@H](c2ccc(O)c(O)c2)[C@H]1O	101	
COc1cc(C2Oc3cc(-c4oc5cc(O)cc(O)c5c(=O)c4O)ccc3OC2CO)ccc1O (centres undefined)	91	
COc1cc(C2Oc3cc(-c4oc5cc(O)c(C/C=C(\C)CCC=C(C)C)c(O)c5c(=O)c4O)ccc3OC2CO)ccc1O (centres undefined)	83.3	180
O=C1C[C@@H](c2ccc(O)cc2)Oc2cc(O)cc(O)c21 [NARINGENIN]		28500
COc1cc(C2Oc3cc(-c4oc5c(C/C=C(\C)CCC=C(C)C)c(O)cc(O)c5c(=O)c4O)ccc3OC2CO)ccc1O (centres undefined)	88.1	120
COc1ccc(-c2oc3cc(O)cc(O)c3c(=O)c2O)cc1 [KAEMPFERIDE]		4500
COc1cc(C2Oc3cc(-c4oc5cc(O)c(CC=C(C)C)c(O)c5c(=O)c4O)ccc3OC2CO)ccc1O (centres undefined)	90.3	370
